From PubChem BioAssay (NCI) come the findings set out here.

Some test systems named below: BT-549 breast; IGROV1 ovarian; NCI-H226 lung; NCI-H23 lung; NCI-H460 lung; NCI-H522 lung; SW-620 colon; T-47D breast; UACC-62 melanoma; HOP-92 NSCLC.
Common to all, as to experiment: NCI tumour cell line growth inhibition, 48 h

Values joined by “and” are separate entries in the source; they are usually repeats but may differ in a detail not shown here. Identical values can stand only once.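 Cultured in 96-well plates, cells were exposed to test compound for 48 hours across five concentrations. At the GI50, growth is halved. TGI denotes the concentration required for complete inhibition of growth.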

Regarding `O=c1[nH]c2ccc(O)cc2o1`, the TGI with BT-549 breast, in the experiment with IGROV1 ovarian, in the experiment on NCI-H226 lung, in the experiment with NCI-H23 lung, with NCI-H460 lung and in the experiment on NCI-H522 lung was greater than 100 µM throughout. The TGI in the experiment on SW-620 colon, in the experiment on T-47D breast and with UACC-62 melanoma was greater than 100 µM in each case.
`COc1ccc(C(O)(CCC(C)C)C(CN2CCOCC2)c2ccc(Cl)cc2)cc1` (stereo not given): the GI50 is 14.9 µM in the experiment on BT-549 breast; 8 µM in the experiment on HOP-92 NSCLC; 14.2 µM in the experiment with IGROV1 ovarian; 13.2 µM in the experiment on NCI-H226 lung; 9.85 µM in the experiment on NCI-H23 lung; 11.4 µM in the experiment with NCI-H460 lung. The GI50 in the experiment on NCI-H522 lung was 6.7 µM; in the experiment with SW-620 colon, 11.4 µM; in the experiment with T-47D breast it was 11.4 µM; with UACC-62 melanoma it was 13.4 µM. Moreover, the TGI was determined as 30 µM in the experiment on BT-549 breast; 21.7 µM with HOP-92 NSCLC; 54.2 µM with IGROV1 ovarian; 32.1 µM in the experiment on NCI-H226 lung; 30.3 µM with NCI-H23 lung; 31.6 µM in the experiment on NCI-H460 lung. The TGI in the experiment on NCI-H522 lung turned out to be 21.6 µM; with SW-620 colon it was 26.8 µM; in the experiment with T-47D breast it was 26.9 µM; in the experiment with UACC-62 melanoma, 29.1 µM.
As to `C/C(=N\NC(=S)N1CCCCCC1)c1ccccn1`, the TGI is 1.76 µM with BT-549 breast; 0.3 µM in the experiment with HOP-92 NSCLC; 2.66 µM and 6.59 µM in the experiment with IGROV1 ovarian; 3.62 µM and 5.35 µM with NCI-H226 lung; 5.85 µM and 6.33 µM in the experiment with NCI-H23 lung; 1.47 µM and 2.22 µM in the experiment on NCI-H460 lung. Also, the TGI with NCI-H522 lung was 0.623 µM and 1.39 µM; with SW-620 colon it was 1.85 µM and 4.74 µM; with T-47D breast it was 8.43 µM and 7.58 µM; in the experiment with UACC-62 melanoma, 0.33 µM and 0.268 µM. Further, the GI50 is 0.217 µM with HOP-92 NSCLC; less than 0.0122 µM with IGROV1 ovarian; 0.245 µM in the experiment on NCI-H226 lung; less than 0.0182 µM in the experiment on NCI-H23 lung; 0.0421 µM with NCI-H460 lung; 0.109 µM with NCI-H522 lung. The GI50 in the experiment on SW-620 colon is less than 0.0204 µM.
`CC(C)OC(=O)[C@H](C)NP(=O)(OC[C@H]1O[C@@H](n2ccc(=O)[nH]c2=O)[C@](C)(F)[C@@H]1O)Oc1ccccc1` (stereo not given in full): the GI50 in the experiment on BT-549 breast, in the experiment on HOP-92 NSCLC, in the experiment on IGROV1 ovarian, in the experiment on NCI-H226 lung, with NCI-H23 lung and with NCI-H460 lung was greater than 100 µM in each case. Further, the GI50 in the experiment on NCI-H522 lung, with SW-620 colon, in the experiment with T-47D breast and with UACC-62 melanoma was greater than 100 µM in each case. The TGI in the experiment with BT-549 breast, in the experiment with HOP-92 NSCLC, in the experiment with IGROV1 ovarian, in the experiment on NCI-H226 lung, with NCI-H23 lung and with NCI-H460 lung was greater than 100 µM each time. Besides, the TGI in the experiment on NCI-H522 lung, in the experiment with SW-620 colon, in the experiment on T-47D breast and in the experiment with UACC-62 melanoma was greater than 100 µM in each case.
`COc1ccc(C2=C(c3ccc(OC)cc3)C(=O)N3CCCC3C2)cc1` (stereo not given): the GI50 in the experiment with BT-549 breast is 17.1 µM; in the experiment with HOP-92 NSCLC, greater than 95.1 µM; in the experiment on IGROV1 ovarian, 18.1 µM; with NCI-H226 lung it was 37.1 µM; in the experiment on NCI-H23 lung it was 41.9 µM; in the experiment with NCI-H460 lung, 1.81 µM. Also, the GI50 was 14.1 µM in the experiment on NCI-H522 lung, 15.4 µM with SW-620 colon, 28 µM in the experiment with T-47D breast and 9.09 µM in the experiment on UACC-62 melanoma. In addition, the TGI with BT-549 breast is greater than 89.8 µM; in the experiment with HOP-92 NSCLC, greater than 100 µM; in the experiment with IGROV1 ovarian, greater than 100 µM; in the experiment on NCI-H226 lung, greater than 100 µM; in the experiment on NCI-H23 lung, greater than 100 µM; with NCI-H460 lung, greater than 40.9 µM. In addition, the TGI in the experiment on NCI-H522 lung is 96.8 µM; in the experiment on SW-620 colon, greater than 100 µM; with T-47D breast, greater than 100 µM; with UACC-62 melanoma, greater than 100 µM.
`O=C1c2cc3c(cc2-c2c1c1cc(Cl)c(Cl)cc1c(=O)n2C[C@H](O)CO)OCO3`: the GI50 was less than 0.01 µM with BT-549 breast; 0.0219 µM in the experiment with IGROV1 ovarian; less than 0.01 µM in the experiment on NCI-H226 lung; less than 0.01 µM in the experiment on NCI-H23 lung; less than 0.01 µM in the experiment on NCI-H460 lung; less than 0.01 µM in the experiment on NCI-H522 lung. Further, the GI50 with SW-620 colon, in the experiment with T-47D breast and in the experiment with UACC-62 melanoma was less than 0.01 µM throughout. Moreover, the TGI with BT-549 breast is 0.455 µM; in the experiment with IGROV1 ovarian it was 2.08 µM; in the experiment with NCI-H226 lung it was 0.0248 µM; with NCI-H23 lung, 0.0448 µM; in the experiment on NCI-H460 lung, 0.0268 µM; in the experiment on NCI-H522 lung, 0.122 µM. Moreover, the TGI was 2.08 µM in the experiment with SW-620 colon, 0.0334 µM with T-47D breast and 0.0126 µM in the experiment on UACC-62 melanoma.
For `CN(C)c1ncnc2c1ncn2CCn1cnc2c(N(C)C)ncnc21`, the TGI with BT-549 breast, in the experiment on HOP-92 NSCLC, in the experiment on IGROV1 ovarian, in the experiment on NCI-H23 lung, with NCI-H460 lung and in the experiment on NCI-H522 lung was greater than 100 µM throughout. For the same compound, the TGI in the experiment with SW-620 colon, in the experiment on T-47D breast and in the experiment with UACC-62 melanoma was greater than 100 µM each time.
`CC(C(=O)O)c1cccc(Oc2ccccc2)c1` (stereo not given): the GI50 with BT-549 breast, in the experiment with IGROV1 ovarian, in the experiment on NCI-H226 lung, with NCI-H23 lung, in the experiment on NCI-H460 lung and with NCI-H522 lung was greater than 100 µM each time. Besides, the GI50 in the experiment on SW-620 colon, in the experiment on T-47D breast and in the experiment on UACC-62 melanoma was greater than 100 µM in each case. Besides, the TGI in the experiment on BT-549 breast, with IGROV1 ovarian, in the experiment on NCI-H226 lung, in the experiment with NCI-H23 lung, in the experiment on NCI-H460 lung and in the experiment with NCI-H522 lung was greater than 100 µM throughout. Also, the TGI in the experiment with SW-620 colon, in the experiment with T-47D breast and in the experiment on UACC-62 melanoma was greater than 100 µM in each case.
For `S=c1[nH]c2c(Cl)c(Cl)c(Cl)c(Cl)c2[nH]1`, the TGI is 52.4 µM in the experiment with BT-549 breast; 53.6 µM with HOP-92 NSCLC; 37.8 µM with IGROV1 ovarian; greater than 100 µM with NCI-H23 lung; 40.6 µM with NCI-H460 lung; 3.71 µM in the experiment with NCI-H522 lung. Also, the TGI with SW-620 colon was 49.2 µM; in the experiment on T-47D breast it was greater than 100 µM; in the experiment with UACC-62 melanoma, 33.3 µM.
